Measured values taken from US11357786B2, “Synthetic disugar hydrocarbons as natural analogs to control microbial behaviors” (Syracuse University, priority 2014, dated 2022).

Legend:
Type in all cases: cell-based, Pseudomonas aeruginosa
PAO1-EGFP biofilm = assay: Biofilm on steel coupons, fluorescence / CLSM; conditions: 160 μM, 24 h, LB media
Procedure: A crystal violet (CV) assay was used to measure the amount of PAO1 biofilm formed after 24 h of bacterial inoculation. The fluorescence of green fluorescent proteins (GFP) expressed by PAO1-GFP was measured to directly quantify bacterial adhesion on polystyrene black 96 well plates with and without maltose derivatives after 2 h of bacterial inoculation. To evaluate the potential of maltose derivatives as both anti-biofilm and anti-adhesion agents, they were compared to a brominated furanone (BF8) known to inhibit biofilm formation, and two generic surfactants, sodium dodecyl sulfate (SDS) and tetra (ethylene glycol) monododecyl ether (C12EG4OH). […] P. aeruginosa strain PAO1-EGFP that constitutively producing green fluorescent protein was allowed to form biofilm on sterile steel coupons.
Confocal laser scanning microscopy (CLSM) based biofilm inhibition assay. Steel coupons (˜1×1 cm) were washed with EtOH, dried under a stream of nitrogen and then sterilized in an autoclave. Overnight culture of PAO1/EGFP (OD600 ˜1.0) grown in LB media (supplemented with 300 μg/mL of carbenicillin), was sub-cultured to OD600˜0.01 and then the OD600 was allowed to reach ˜0.1. Aliquot (600 μL) of PAO1/EGFP subculture OD600˜0.1 was then added into the wells of a 24-well micro titer plate. DSHs were then introduced into the assigned wells to reach a resultant concentration of 160 μM. Bacterial sub-culture with no agent served as positive control. Sterile steel coupons were then placed into the wells and the plates were wrapped with saran wrap and incubated for 24 h at 37° C. under static conditions. After 24 hours, the steel coupons were removed and washed by dipping in PBS buffer (2 washes) and the dried by holding with a forcep and gently dabbing the edge on a bleached paper (KIM wipes). The dried steel coupons were viewed under confocal laser scanning microscope (CLSM). Images were taken at 4 random locations on each steel coupons. Z-stacked images were also taken to determine the relative thickness of the biofilm.

wild type PAO1 = assay: Swarming motility of wild type PAO1 on soft agar (antagonist assay); conditions: for Swarming of wild type PAO1: 110 μM in soft agar; for Effect on PAO1 swarming: concentration not given
Procedure: In contrast, the wild type P. aeruginosa produces the rhamnolipids and is capable of swarming on soft agar gel (˜0.5% agar). […] We note that saccharide hydrocarbons may also promote the swarming motility, but such promotions are less unambiguous than the inhibition for wild type PAO1. Such promotion will be unambiguous in the agonist assay using the nonswarming mutant rhlA.
(§1) Swarm agar plates were based on M8 medium supplemented with 0.2% glucose, 0.5% casamino acid, 1 mM MgSO4 and […]. 17 For each set of experiment all the swarm plates were poured from same batch of agar and allowed to dry for 1 h before inoculation of bacteria. Bacterial culture (3 μl) (wild type PAO1 or rhlA mutant) with OD600 between […] was inoculated on the solidified agar plates. Swarm agar plates were incubated at 37° C. for 12 h and then incubated for additional 12 h at room temp. Chronological images of swarm plates were taken using a camera. To measure swarming area, sizes of the petridish in all swarming images were adjusted to a pre-assigned diameter and images were printed on copying paper (Xerox-business 4200). Weight of a 1 cm^2 copy paper square was roughly ˜8.0 mg. swarming images on the copy paper were cut and weighed, the swarm area was calculated by dividing the weight of image by weight of 1 cm^2 square (8 mg).
(§2) Swarm agar plates were made using M8 medium supplemented with 0.2% glucose, 0.5% casamino acid, 1 mM MgSO4 and solidified with 0.5% Bacto agar. 24 Bacterial culture with OD600 between 0.4 to 0.6 was inoculated as 3 μl aliquots. Swarm agar plates were incubated at 37° C. for 12 h and then incubated for additional 12 h at rt. For each set of experiment all the swarm plates were poured from same batch of agar and allowed to dry for 1 h before inoculation of bacteria.

[1] = tested on: nonswarming P. aeruginosa mutant rhlA; assay: Swarming motility of nonswarming rhlA mutant on soft agar (reactivation / agonist assay); conditions: for Swarming reactivation of rhlA mutant: 110 μM in soft agar
Excerpt: Using nonswarming mutant to screen for swarming agonists and wild type P. aeruginosa for swarming antagonists. The transposon mutant, rhlA (genotype, rhlA-E08:ISphoA/hah)39 of P. aeruginosa (PAO1), that impairs the gene that is responsible for synthesizing rhamnolipids is completely incapable of a swarming motility. […] Based on this inference, a rhlA mutant was used in a swarming experiment to screen the saccharide-hydrocarbons for agonists that can reactivate the swarming motility of rhlA.
as §1, §2

PAO1 biofilm = assay: Crystal violet based static biofilm inhibition assay, DSHs in LB media (Examples 2 and 4); conditions: for Inhibition of PAO1 biofilm formation (surface attached): 160 μM, 24 h, LB media; for Anti-biofilm activity (biofilm inhibition): concentration not given
Procedure: The ability of DSHs was tested to inhibit Pseudomonas aeruginosa adhesion, biofilm and to disperse pre-formed biofilm. To quantify the amount of PAO1/EGFP attached on the surface of micro titer plates with or without the synthesized DSHs, fluorescence emitted by green fluorescent proteins (GFP) was quantified (see supporting info for details). Crystal violet (CV) based static biofilm assay (see supporting info) was used to screen the anti-biofilm potencies of all synthesized agents. Both surface attached (SA) (FIG. 17) and total (SA+air-liquid interface) biofilm of P. aeruginosa was quantified. […] CV assays were also used to quantify the amount of P. aeruginosa biofilm remaining after dispersion experiments (FIG. 19). Initially, all agents were screen for anti-biofilm activities (both inhibition and dispersion) at 160 μM. […] All reported biofilm inhibition results are an average of 4 identical wells.
The effect that DSHs have on the adhesion of PAO1-EGFP on polystyrene surface (microtiter plate) was also examined. PAO1-EGFP is a P. aeruginosa strain that constitutively expresses green fluorescent protein. In the adhesion assays, PAO1-EGFP was grown in microtiter plate for 24-hours in LB-media with (160 μM) or without DSHs. After 24-hours, the fluorescent signal obtained from surface adhered PAO1-EGFP was measured. Percent reduction in fluorescence was calculated by comparing fluorescent signal from PAO1-EGFP grown in LB-media with the signal from wells that had DSHs (FIG. 29A). To study the effect of DSHs on biofilm formation, Pseudomonas aeruginosa (PAO1) was grown in LB-media with (160 μM) or without DSHs at 37° C. under static conditions within wells of microtiter plates. After 24 hours, the surface attached biofilms adhering to the bottom of the wells were stained with crystal-violet dye and the biofilm was quantified by measuring absorbance at 600 nm (OD600). […] Similar to inhibition, the surface attached biofilm after dispersion with DSHs was quantified with crystal-violet staining and absorbance measurement at 600 nm, except that for dispersion, biofilm was first grown for 1 day in just LB-media without any DSHs after which DSHs were added and plates were incubated for additional 24 hours followed by quantification (FIG. 29B).
Crystal violet (CV) based-biofilm inhibition assay. Inhibitory effect of all synthesized disaccharide hydrocarbons on biofilm formation of Pseudomonas aeruginosa (wild type PAO1) was determined by static biofilm inhibition assay using crystal violet staining. Overnight culture of PAO1 were sub cultured in LB media to OD600 of 0.01 and further the OD600 was allowed to reach ˜0.1. The bacterial sub-culture (200 μL) was then added into the wells of a microtiter plate. Predetermined concentrations of DSHs were added to respective wells containing sub culture by pipetting out fixed volume of sterile aqueous stock solutions (except DβL (7), SPOT, (15) and 2-ODαC (17), which were introduced as stocks prepared in H2O […] and EtOH (90:10) solutions). The microtiter plates were then wrapped in GLAD Press n′ Seal® (saran wrap) and further incubated under stationary conditions for 24 h at 37° C. After 24 h incubation, the culture media was discarded by pipetting carefully (without disrupting biofilm), the plate was then washed once with sterile water (200 μL) and allowed to dry at 37° C. for ˜30 mins. Microtiter plates were then stained with 0.1% aqueous solution of crystal violet (CV) (200 μL) at rt for ˜30 mins. Following this, the CV stain was removed and plate was again washed with sterile water (200 μL). Resultant CV stain in the well was then solubilized by adding 100 μL of 30% AcOH solution (in water) and mixing gently by pipetting.

[2] = 85 μM in soft agar (0.5%), 24 h

## CCCCCCCCCCO[C@@H]1O[C@H](CO)[C@@H](O[C@@H]2O[C@H](CO)[C@@H](O)[C@H](O)[C@H]2O)[C@H](O)[C@H]1O [DeβC (2), decyl-β-cellobioside]
PAO1-EGFP biofilm
  PAO1-EGFP biofilm on stainless steel coupons (CLSM): bacterial surface coverage comparable to that of control
Wild type PAO1; 85 μM in soft agar, 24 h
  Swarming motility of wild type PAO1: did not show a noticeable effect on the swarming motility
Wild type PAO1; 24 h
  Swarming of wild type PAO1: did not significantly affect the swarm pattern
Wild type PAO1; 160 μM in soft agar, 24 h
  Swarming motility of wild type PAO1: weak promotion of swarming motility of wild type PAO1
Wild type PAO1
  Effect on PAO1 swarming: no apparent effect on PAO1 swarming
[1]; [2]
  Swarming motility of rhlA mutant: did not show a noticeable effect on the swarming motility
[1]; 24 h
  Swarming reactivation of rhlA mutant: incapable of reactivating the swarming
[1]; 160 μM in soft agar, 24 h
  Swarming motility of rhlA mutant: weak activation of rhlA swarming motility
[1]; concentration not given
  Reactivation of swarming motility of rhlA mutant: activated the swarming motility of rhlA mutant
[1]; increasing from 85 to 160 μM
  Increase of reactivated swarming ring of rhlA with respect to swarming ring of PAO1 without agents: 38%
PAO1 biofilm
  Inhibition of PAO1 biofilm formation (surface attached): insignificant biofilm inhibition and no
  Anti-biofilm activity (biofilm inhibition): did not show significant inhibition of PAO1 biofilm
PAO1 biofilm; listed as 2: DeβC, 160 µM
  Inhibition of PAO1 biofilm formation (surface attached): complete loss of anti-biofilm activity
PAO1 biofilm; listed as DβC (2)
  Anti-biofilm activity (biofilm inhibition): did not show anti-biofilm activities

## CCCCCCCCCCCCO[C@@H]1O[C@H](CO)[C@@H](O[C@@H]2O[C@H](CO)[C@@H](O)[C@H](O)[C@H]2O)[C@H](O)[C@H]1O [DβC (4), dodecyl-β-cellobioside]
PAO1-EGFP biofilm
  PAO1-EGFP biofilm on stainless steel coupons (CLSM): decreased the fluorescence signal significantly
Wild type PAO1
  Concentration at which tendrils were induced in PAO1: 20 µM
  Effect on PAO1 swarming: induced tendril formation in the swarming pattern of PAO1
Wild type PAO1; 20 μM
  Swarming motility of wild type PAO1: stronger inhibition than rhamnolipids
Wild type PAO1; 85 μM
  Swarming area of PAO1 smaller than control: ~46%
Wild type PAO1; 85 μM in soft agar, 24 h
  Swarming motility of wild type PAO1: causing significant amount of tendril formation
Wild type PAO1; 85 μM, control ~24 cm2
  Swarming area of wild type PAO1: ~13 cm2
Wild type PAO1; 24 h, listed as 4: DbC
  Swarming of wild type PAO1: promotes tendril formation
Wild type PAO1; 24 h, listed as 4: DβC
  Swarming of wild type PAO1: induced more tendril formation
Wild type PAO1; soft agar
  Concentration of activity reversal for swarming inhibition of PAO1 (transition concentration): ~20 to 30 µM
[1]
  Concentration at which tendril formation was induced in rhlA mutant: ~56 µM
  Concentration of first inhibition of rhlA swarming: around 50 μM
[1]; 40 μM
  Swarming motility of rhlA mutant: activated the swarming motility of rhlA mutant
[1]; [2]
  Swarming motility of rhlA mutant: strong reactivation of the swarming motility in rhlA mutant
[1]; 24 h, listed as 4: DbC
  Swarming reactivation of rhlA mutant: fully restores swarming with fine tendrils
[1]; 24 h, listed as 4: DβC
  Swarming reactivation of rhlA mutant: fully restored the swarming of rhlA
[1]; after first inhibition
  Concentration of another activation of rhlA swarming: about 160 μM
[1]; soft agar
  Concentration of activity reversal for swarming promotion of rhlA mutant (transition concentration): ^a~45-56 μM
  Lowest concentration that reactivates swarming of rhlA mutant: ≤ 20 µM
[1]; soft agar, listed as 4
  Concentration of activity reversal for swarming promotion of rhlA mutant (transition concentration): 45 to 56 µM
PAO1 biofilm; listed as 4: DβC, 160 µM
  Inhibition of PAO1 biofilm formation (surface attached): 60%
PAO1 biofilm; listed as DISC (4)
  Inhibition of PAO1 biofilm formation (surface attached): 62%
PAO1 biofilm; Example 4, FIG. 30
  IC50: ~72 µM

## CCCCCCCCCCCCO[C@@H]1O[C@H](CO)[C@@H](O[C@@H]2O[C@H](CO)[C@H](O)[C@H](O)[C@H]2O)[C@H](O)[C@H]1O [DβL (7), dodecyl-β-lactoside]
PAO1-EGFP biofilm
  PAO1-EGFP biofilm on stainless steel coupons (CLSM): bacterial surface coverage comparable to that of control
Wild type PAO1; 24 h
  Swarming of wild type PAO1: did not significantly affect the swarm pattern
[1]; 24 h
  Swarming reactivation of rhlA mutant: incapable of reactivating the swarming
PAO1 biofilm
  Inhibition of PAO1 biofilm formation (surface attached): insignificant biofilm inhibition
  Anti-biofilm activity (biofilm inhibition): low activities
PAO1 biofilm; listed as 7: DβL, 160 µM
  Inhibition of PAO1 biofilm formation (surface attached): severely compromised the anti-biofilm activity
